We go through 23 compounds from ChEMBL document CHEMBL5154804, “Species-Selective Targeting of Fungal Hsp90: Design, Synthesis, and Evaluation of Novel 4,5-Diarylisoxazole Derivatives for the Combination Treatment of Azole-Resistant Candidiasis” (J Med Chem, 2022).

Structures are written as SMILES.

Data set [1] has as its system Candida albicans. The data set can be described thus: Synergistic antifungal activity against fluconazole-resistant Candida albicans 901 assessed as inhibition of fungal growth in presence of fluconazole by checker board microdilution assay. Type of data set: functional.
The nature of data set [2]: Metabolic stability in human liver microsomes assessed as microsomal intrinsic clearance in presence of NADPH cofactor under shaking condition for 10 mins measured after 5 to 60 mins by LC-MS/MS analysis. Type of data set: ADME, Microsome. To be noted: time 15-70 min.
Data set [3] can be described thus: Binding affinity to recombinant Candida albicans Hsp90 NBD expressed in Escherichia coli by SPR assay.
For data set [4], the system named is Candida albicans. As to the kind of experiment: Synergistic antifungal activity against fluconazole-resistant Candida albicans 904 assessed as inhibition of fungal growth in presence of fluconazole by checker board microdilution assay. Further: test concentration or dose not given here. Type of data set: functional.
The subject of data set [5] is Candida albicans. The data set can be described thus: Synergistic antifungal activity against fluconazole-resistant Candida albicans 311 assessed as inhibition of fungal growth in presence of fluconazole by checker board microdilution assay. Further: test concentration or dose not given here. Type of data set: functional.
The subject of data set [6] is Candida albicans. As to the kind of experiment: Synergistic antifungal activity against fluconazole-resistant Candida albicans 103 assessed as inhibition of fungal growth in presence of fluconazole by checker board microdilution assay. Type of data set: functional.
For the next data set, the target named is Heat shock protein HSP90 (Homo sapiens, UniProt P07900+P08238). The data set can be described thus: Binding affinity to human Hsp90 expressed in Escherichia coli by SPR assay.
The subject of data set [7] is Candida albicans. The data set can be described thus: Synergistic antifungal activity against fluconazole-resistant Candida albicans 100 assessed as inhibition of fungal growth in presence of fluconazole by checker board microdilution assay. Type of data set: functional.
Data set [8] can be described thus: Metabolic stability in human liver microsomes assessed as compound remaining in presence of NADPH cofactor under shaking condition for 10 mins measured after 60 mins by LC-MS/MS analysis. Type of data set: ADME, Microsome. To be noted: time 70 min, read-out: Stability.
Data set [9] can be described thus: Metabolic stability in human liver microsomes assessed as half life in presence of NADPH cofactor under shaking condition for 10 mins measured after 5 to 60 mins by LC-MS/MS analysis. To be noted: time 15-70 min. Type of data set: ADME, Microsome.
Data set [10] in a line: Metabolic stability in human liver microsomes assessed as intrinsic clearance in presence of NADPH cofactor under shaking condition for 10 mins measured after 5 to 60 mins by LC-MS/MS analysis. Type of data set: ADME, Microsome. To be noted: time 15-70 min.
In data set [11] the test system is Candida albicans. The data set can be described thus: Synergistic antifungal activity against fluconazole-resistant Candida albicans 632 assessed as inhibition of fungal growth in presence of fluconazole by checker board microdilution assay. Type of data set: functional.

For the compound `CCNC(=O)c1noc(-c2cc(-c3cccc(C(C)C)c3)c(O)cc2O)c1-c1ccc(CN2CCOCC2)cc1`, the MIC80 is 0.25 µg/mL in the data set with Candida albicans [1]; 0.25 µg/mL with Candida albicans [4]; 0.5 µg/mL in the data set with Candida albicans [5]; 0.25 µg/mL with Candida albicans [6]; 0.25 µg/mL in the data set with Candida albicans [7]; 0.5 µg/mL in the data set on Candida albicans [11]. Besides, the figures for the CLint in [2] and in data set [10] were 91.9 µL/min/mg and 82.7 mL/min/kg, respectively. Also, the figures for the Kd (in data set [3]; at Heat shock protein HSP90) were 476 nM and over 25 µM, respectively. For the same compound, the remaining at 1.167 h in data set [8] was found to be 6.1%. Also, the half-life in data set [9] is 15.1 min.
As for `CCNC(=O)c1noc(-c2cc(-c3cccc(Cl)c3)c(O)cc2O)c1-c1ccc(CN2CCOCC2)cc1`, the MIC80 was found to be 1 µg/mL in the data set with Candida albicans [1]; 0.25 µg/mL with Candida albicans [4]; 1 µg/mL with Candida albicans [5]; 0.5 µg/mL in the data set with Candida albicans [6]; 1 µg/mL with Candida albicans [7]; 0.5 µg/mL with Candida albicans [11]. Moreover, the CLint in [2] was 72 µL/min/mg; in data set [10] it was 64.8 mL/min/kg. Moreover, the remaining at 1.167 h in data set [8] was found to be 12.1%. Further, the half-life in data set [9] stood at 19.3 min.
For `CCNC(=O)c1noc(-c2cc(-c3cccc(C)c3)c(O)cc2O)c1-c1ccc(CN2CCOCC2)cc1`, the MIC80 amounted to 0.5 µg/mL with Candida albicans [1]; 0.25 µg/mL in the data set with Candida albicans [4]; 0.5 µg/mL in the data set with Candida albicans [5]; 1 µg/mL with Candida albicans [6]; 1 µg/mL with Candida albicans [7]; 0.25 µg/mL in the data set with Candida albicans [11].
Consider `CCNC(=O)c1noc(-c2cc(-c3ccccc3C)c(O)cc2O)c1-c1ccc(CN2CCOCC2)cc1`, for which the MIC80 in the data set with Candida albicans [1], with Candida albicans [4], with Candida albicans [5], with Candida albicans [6], in the data set on Candida albicans [7] and with Candida albicans [11] was over 64 µg/mL throughout. The Kd in data set [3] was over 25000 nM; at Heat shock protein HSP90, over 25 µM.
Consider `CCNC(=O)c1noc(-c2cc(-c3cccc(OC(F)(F)F)c3)c(O)cc2O)c1-c1ccc(CN2CCOCC2)cc1`, for which the MIC80 with Candida albicans [1], with Candida albicans [4], in the data set with Candida albicans [5], in the data set on Candida albicans [6], with Candida albicans [7] and with Candida albicans [11] was over 64 µg/mL each time.
Consider `CCNC(=O)c1noc(-c2cc(-c3ccc(C)cc3)c(O)cc2O)c1-c1ccc(CN2CCC(N(C)C)CC2)cc1`, for which the MIC80 in the data set on Candida albicans [1] stood at 16 µg/mL; in the data set with Candida albicans [4], 4 µg/mL; in the data set on Candida albicans [5], 2 µg/mL; in the data set with Candida albicans [6], 4 µg/mL; in the data set with Candida albicans [7], 64 µg/mL; with Candida albicans [11] it was 64 µg/mL.
Turning to `C[C@@H]1C[C@H]2O[C@@H]2/C=C\C=C\C(=O)Cc2c(Cl)c(O)cc(O)c2C(=O)O1` [RADICICOL], the MIC80 in the data set on Candida albicans [1] worked out at 1 µg/mL; in the data set with Candida albicans [4], 0.5 µg/mL; in the data set with Candida albicans [5], 1 µg/mL; in the data set with Candida albicans [6], 1 µg/mL; in the data set with Candida albicans [7], 0.5 µg/mL; in the data set with Candida albicans [11], 1 µg/mL. Further, the Kd in data set [3] came to 2 nM.
Turning to `Cc1ccc(-c2cc(-c3onc(C(=O)NC(C)C)c3-c3ccc(CN4CCOCC4)cc3)c(O)cc2O)cc1`, the MIC80 worked out at 8 µg/mL with Candida albicans [1]; 4 µg/mL in the data set with Candida albicans [4]; 64 µg/mL in the data set with Candida albicans [5]; 64 µg/mL with Candida albicans [6]; 16 µg/mL with Candida albicans [7]; 8 µg/mL with Candida albicans [11].
For `Cc1ccc(-c2cc(-c3onc(C(=O)N4CCCCC4)c3-c3ccc(CN4CCOCC4)cc3)c(O)cc2O)cc1`, the MIC80 with Candida albicans [1], in the data set with Candida albicans [4], in the data set with Candida albicans [5], in the data set on Candida albicans [6], with Candida albicans [7] and with Candida albicans [11] was over 64 µg/mL each time.
Turning to `CCNC(=O)c1noc(-c2cc(-c3ccc(C)cc3)c(O)cc2O)c1-c1ccc(CNC2CCN(C)CC2)cc1`, the MIC80 turned out to be 16 µg/mL with Candida albicans [1]; 64 µg/mL with Candida albicans [4]; 64 µg/mL with Candida albicans [5]; 16 µg/mL in the data set on Candida albicans [6]; 64 µg/mL in the data set on Candida albicans [7]; 8 µg/mL with Candida albicans [11].
For `CCN(CC)C(=O)c1noc(-c2cc(-c3ccc(C)cc3)c(O)cc2O)c1-c1ccc(CN2CCOCC2)cc1`, the MIC80 in the data set with Candida albicans [1] is 8 µg/mL; in the data set on Candida albicans [4], 8 µg/mL; with Candida albicans [5] it was 8 µg/mL; in the data set with Candida albicans [6] it was 16 µg/mL; with Candida albicans [7], 8 µg/mL; with Candida albicans [11], 8 µg/mL.
Regarding `Cc1ccc(-c2cc(-c3onc(C(=O)NC4CCC4)c3-c3ccc(CN4CCCCC4)cc3)c(O)cc2O)cc1`, the MIC80 with Candida albicans [1] worked out at 4 µg/mL; in the data set on Candida albicans [4], 2 µg/mL; with Candida albicans [5] it was 2 µg/mL; in the data set on Candida albicans [6], 4 µg/mL; in the data set with Candida albicans [7] it was 2 µg/mL; in the data set with Candida albicans [11] it was 1 µg/mL.
In the case of `Cc1ccc(-c2cc(-c3onc(C(=O)N(C)C)c3-c3ccc(CN4CCCCC4)cc3)c(O)cc2O)cc1`, the MIC80 came to 16 µg/mL in the data set on Candida albicans [1]; 8 µg/mL in the data set with Candida albicans [4]; 16 µg/mL in the data set with Candida albicans [5]; 16 µg/mL with Candida albicans [6]; 8 µg/mL in the data set with Candida albicans [7]; 8 µg/mL with Candida albicans [11].
As to `CCNC(=O)c1noc(-c2cc(-c3ccccc3)c(O)cc2O)c1-c1ccc(CN2CCOCC2)cc1`, the MIC80 in the data set with Candida albicans [1] turned out to be 1 µg/mL; in the data set with Candida albicans [4], 2 µg/mL; with Candida albicans [5] it was 4 µg/mL; with Candida albicans [6], 4 µg/mL; in the data set on Candida albicans [7], 2 µg/mL; in the data set on Candida albicans [11], 4 µg/mL. In addition, the figures for the Kd (in data set [3]; at Heat shock protein HSP90) were 7910 nM and over 25 µM, respectively.
On to `CCNC(=O)c1noc(-c2cc(-c3cccc(CC)c3)c(O)cc2O)c1-c1ccc(CN2CCOCC2)cc1`, for which the MIC80 is 0.25 µg/mL in the data set on Candida albicans [1]; 0.5 µg/mL in the data set with Candida albicans [4]; 0.5 µg/mL with Candida albicans [5]; 1 µg/mL in the data set on Candida albicans [6]; 0.25 µg/mL in the data set with Candida albicans [7]; 0.5 µg/mL in the data set with Candida albicans [11]. The CLint is 80.7 µL/min/mg in data set [2] and 72.7 mL/min/kg in data set [10]. Further, the remaining at 1.167 h in data set [8] came to 9.2%. Besides, the half-life in [9] amounted to 17.2 min.
With `Cc1ccc(-c2cc(-c3onc(C(=O)NC4CC4)c3-c3ccc(CN4CCOCC4)cc3)c(O)cc2O)cc1`, the MIC80 is 8 µg/mL with Candida albicans [1]; 4 µg/mL with Candida albicans [4]; over 64 µg/mL in the data set on Candida albicans [5]; 16 µg/mL with Candida albicans [6]; 4 µg/mL with Candida albicans [7]; 32 µg/mL with Candida albicans [11].
Turning to `CCNC(=O)c1noc(-c2cc(-c3cccc(F)c3)c(O)cc2O)c1-c1ccc(CN2CCOCC2)cc1`, the MIC80 in the data set with Candida albicans [1] came to 2 µg/mL; in the data set on Candida albicans [4] it was 1 µg/mL; in the data set with Candida albicans [5], 4 µg/mL; with Candida albicans [6], 16 µg/mL; in the data set with Candida albicans [7] it was 8 µg/mL; in the data set on Candida albicans [11], 2 µg/mL.
Consider `CCNC(=O)c1noc(-c2cc(-c3ccc(-c4ccccc4)cc3)c(O)cc2O)c1-c1ccc(CN2CCOCC2)cc1`, for which the MIC80 with Candida albicans [1], in the data set with Candida albicans [4], with Candida albicans [5], in the data set with Candida albicans [6], in the data set on Candida albicans [7] and in the data set with Candida albicans [11] was over 64 µg/mL in each case.
With `CCNC(=O)c1noc(-c2cc(-c3ccc(C)cc3)c(O)cc2O)c1-c1ccc(CN2CCNC(=O)C2)cc1`, the MIC80 with Candida albicans [1], in the data set on Candida albicans [4], in the data set on Candida albicans [5], in the data set on Candida albicans [6], with Candida albicans [7] and with Candida albicans [11] was over 64 µg/mL in each case.
As to `CCNC(=O)c1noc(-c2cc(-c3ccc(CC)cc3)c(O)cc2O)c1-c1ccc(CN2CCOCC2)cc1`, the MIC80 in the data set with Candida albicans [1] amounted to 0.5 µg/mL; in the data set with Candida albicans [4], 0.5 µg/mL; in the data set on Candida albicans [5] it was 1 µg/mL; in the data set with Candida albicans [6], 2 µg/mL; in the data set with Candida albicans [7], 4 µg/mL; in the data set with Candida albicans [11], 2 µg/mL.
Regarding `Cc1ccc(-c2cc(-c3onc(C(=O)N4CCC4)c3-c3ccc(CN4CCOCC4)cc3)c(O)cc2O)cc1`, the MIC80 is 16 µg/mL in the data set on Candida albicans [1]; 16 µg/mL in the data set on Candida albicans [4]; over 64 µg/mL in the data set on Candida albicans [5]; over 64 µg/mL with Candida albicans [6]; 8 µg/mL in the data set with Candida albicans [7]; over 64 µg/mL in the data set on Candida albicans [11].
As to `CCNC(=O)c1noc(-c2cc(-c3cccc(C(C)(C)C)c3)c(O)cc2O)c1-c1ccc(CN2CCOCC2)cc1`, the MIC80 in the data set on Candida albicans [1], with Candida albicans [4], in the data set on Candida albicans [5], in the data set on Candida albicans [6], in the data set on Candida albicans [7] and in the data set on Candida albicans [11] was over 64 µg/mL each time.
As for `CCNC(=O)c1noc(-c2cc(-c3ccc(C)cc3)c(O)cc2O)c1-c1ccc(CN2CCCC2)cc1`, the MIC80 was found to be 1 µg/mL in the data set on Candida albicans [1]; 2 µg/mL with Candida albicans [4]; 4 µg/mL with Candida albicans [5]; 4 µg/mL in the data set with Candida albicans [6]; 2 µg/mL in the data set on Candida albicans [7]; 4 µg/mL in the data set on Candida albicans [11].
